We go through 13 compounds from BindingDB's records for doi:10.7270/Q2ST7N9K (Burnham Center For Chemical Genomics, 2010).

This assay addresses Intestinal-type alkaline phosphatase (Homo sapiens, UniProt P09923). The assay is described as follows: human intestinal alkaline phosphatase activators, dose response, biochemical, luminescence, uHTS hits (AID 463120).

Intestinal-type alkaline phosphatase, sequence (P09923 whole entry): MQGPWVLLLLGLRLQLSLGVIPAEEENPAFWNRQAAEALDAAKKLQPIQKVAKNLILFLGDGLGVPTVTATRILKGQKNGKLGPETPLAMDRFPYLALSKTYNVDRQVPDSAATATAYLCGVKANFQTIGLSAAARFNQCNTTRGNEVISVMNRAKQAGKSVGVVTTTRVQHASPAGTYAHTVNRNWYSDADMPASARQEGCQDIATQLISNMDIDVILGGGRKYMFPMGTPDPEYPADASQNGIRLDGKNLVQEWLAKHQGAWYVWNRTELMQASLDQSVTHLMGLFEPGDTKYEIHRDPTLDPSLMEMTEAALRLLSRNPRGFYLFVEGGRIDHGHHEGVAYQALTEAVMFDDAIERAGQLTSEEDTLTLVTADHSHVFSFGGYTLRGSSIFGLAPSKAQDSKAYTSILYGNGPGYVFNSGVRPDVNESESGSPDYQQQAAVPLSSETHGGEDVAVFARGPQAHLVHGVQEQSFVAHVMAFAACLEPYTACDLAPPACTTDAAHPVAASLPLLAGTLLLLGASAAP

In turn, `COc1cccc(CN=Nc2nn3cnnc3c3ccccc23)c1O` came in with a 50% effective concentration (EC50) of over 100 µM. Next, `Cc1c(C(=O)NN=Cc2ccc(O)cc2O)[nH][nH]c1=O`: 8.3 µM; `Cc1cc(Br)ccc1SCC(=O)OCC(=O)C(C#N)c1nc2ccccc2[nH]1` (stereo not drawn) [2-[(4-bromo-2-methylphenyl)thio]acetic acid [3-cyano-3-(1,3-dihydrobenzimidazol-2-ylidene)-2-oxopropyl] ester]: 13.4 µM. The figure for `COc1ccc(Cc2cc(O)n(-c3ccc(C)cc3)c2O)cc1` [3-(4-Methoxy-benzyl)-1-p-tolyl-pyrrolidine-2,5-dione] is over 100 µM; for `C=c1[nH]n(-c2nc3ccccc3[nH]2)c(=O)c1=CN(C)C` [(4E)-2-(1H-benzimidazol-2-yl)-4-(dimethylaminomethylidene)-5-methyl-pyrazol-3-one] it is 12.3 µM. The figure for `CCc1ccc(CN=Nc2ncnc3nc[nH]c23)cc1` [MLS000419199] is 6.62 µM; for `Cn1c(C(C#N)C(=O)c2ccc(Br)s2)nc2ccccc21` (stereo not drawn) [MLS001167394] it is 77 µM; for `Cc1ccc(O)c(N=CCC(=O)c2ccc(F)cc2)c1` [MLS001183581] it is over 100 µM.

`COc1cccc(C=NNC(=O)c2[nH][nH]c(=O)c2C)c1O` [N'-[(E)-(5-methoxy-6-oxidanylidene-cyclohexa-2,4-dien-1-ylidene)methyl]-4-methyl-5-oxidanylidene-1,4-dihydropyrazole-3-carbohydrazide] had an EC50 of 6.53 µM. As for `O=c1c2ccccc2nc(N=NCc2c(O)ccc3ccccc23)n1O` [SMR000145705], the half-maximal effective concentration (EC50) amounted to 13.6 µM.

Compound `O=C(Nn1c(O)csc1=S)C(=O)Nn1c(O)csc1=S` [SMR000349781] returned an EC50 of 9.21 µM. Next, `O=Nc1[nH]c(=O)c(CC(=O)c2ccccc2)nc1NO` [SMR000539633]: 8.21 µM; `CCOC(=O)c1c(C)[nH]c(C(=O)N/N=C/C2C=C([N+](=O)[O-])C=CC2=O)c1C` (stereo not drawn) [ethyl 2,4-dimethyl-5-[[[(E)-(3-nitro-6-oxocyclohexa-2,4-dien-1-ylidene)methyl]amino]carbamoyl]-1H-pyrrole-3-carboxylate]: 12.1 µM.

In general, EC50 refers to the concentration giving half of the maximal effect.
